Where a name gives a salt, the structure may show the parent alone.
How the values were obtained:
[1] = molecular target: Kelch domain of human KEAP1 (321-624 aa) (Homo sapiens (Human), UniProt Q14145); assay: KEAP1 KELCH ThermoFluor binding assay; settings: KEAP Kelch […], 1,8-ANS, pH 7.0, average of results obtained, read-out: Tf Kd;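 note: Ligand-induced melting temperature shift of E. coli-expressed KEAP1 Kelch protein, Kd estimated from concentration-response curves of ΔTm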
[2] = tested on: Glo-Response ARE-luc2P HEK293 cell line; assay: ARE luciferase reporter cell-based assay; settings: Homo sapiens, HEK293, 24 h, average of results obtained;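 note: luciferase signal tracks Nrf2 activation of the ARE once compounds disrupt KEAP1-Nrf2 binding, read with One-Glo reagent, DMSO serving as low control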

Chain of Kelch domain of human KEAP1 (321-624 aa) (Q14145 321-624): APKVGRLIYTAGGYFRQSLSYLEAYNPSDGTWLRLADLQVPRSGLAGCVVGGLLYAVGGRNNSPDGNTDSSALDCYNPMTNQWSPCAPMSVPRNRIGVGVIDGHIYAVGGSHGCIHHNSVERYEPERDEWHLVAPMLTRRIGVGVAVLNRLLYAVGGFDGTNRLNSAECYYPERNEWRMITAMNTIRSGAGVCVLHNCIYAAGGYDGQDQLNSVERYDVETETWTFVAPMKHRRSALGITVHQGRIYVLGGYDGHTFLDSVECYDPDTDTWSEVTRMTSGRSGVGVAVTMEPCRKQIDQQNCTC

| Kd [1] [nM] | SMILES | EC50 [2] [nM] |
| --- | --- | --- |
| < 1 | Cc1ccc([C@@H](c2ccn3c(C(F)(F)F)nnc3c2C)C(C)(C)C(=O)O)cc1CN1CC2(CCOCC2)Oc2nc(OC(C)CN3CCCCC3)c(C)cc2S1(=O)=O (stereo in doubt) [Example 600, (*S)-2,2-Dimethyl-3-(4-methyl-3-((8′-methyl-1′,1′-dioxido-7′-((1-(piperidin-1-yl)propan-2-yl)oxy)-2,3,5,6-tetrahydrospiro[pyran-4,4′-pyrido[2,3-b][1,4,5]oxathiazepin]-2′,(3′H)-yl)methyl)phenyl)-3-(8-methyl-3-(trifluoromethyl)-[1,2,4]triazolo[4,3-a]pyridine-7-yl)propanoic Acid] | 4.58 |
| 0.24 | Cc1ccc(C(CC(=O)O)c2cc(OC3CC3)c3c(c2)nnn3C)cc1CN1C[C@H]2CCCN2c2ncccc2S1(=O)=O (stereo partly drawn) [Example 4, 3-(7-Cyclopropoxy-1-methyl-1H-benzo[d][1,2,3]triazol-5-yl)-3-(3-(((R)-5,5-dioxido-7a,8,9,10-tetrahydropyrido[2,3-f]pyrrolo[2,1-d][1,2,5]thiadiazepin-6(7H)-yl)methyl)-4-methylphenyl)propanoic acid] | 79 |
| 0.081 | CCn1nnc2c(C)c(C(CC(=O)O)c3ccc(C)c(CN4C[C@H]5CCCN5c5ncccc5S4(=O)=O)c3)ccc21 (stereo partly drawn) [Example 20, 3-(3-(((R)-5,5-Dioxido-7a,8,9,10-tetrahydropyrido[2,3-f]pyrrolo[2,1-d][1,2,5]thiadiazepin-6(7H)-yl)methyl)-4-methylphenyl)-3-(1-ethyl-4-methyl-1H-benzo[d][1,2,3]triazol-5-yl)propanoic Acid and its Trifluoroacetic Acid Salt] | 6.3 |
| < 1 | Cc1ccc(C(CC(=O)O)c2ccn3c(C(F)F)nnc3c2C)cc1CN1CC2CCCCN2c2ncc(C#N)cc2S1(=O)=O (stereo not shown) [Example 28, 3-(3-((3-Cyano-5,5-dioxido-7,7a, 8,9,10,11-hexahydro-6H-dipyrido[2,1-d:2′,3′-f][1,2,5]thiadiazepin-6-yl)methyl)-4-methylphenyl)-3-(3-(difluoromethyl)-8-methyl-[1,2,4]triazolo[4,3-a]pyridin-7-yl)propanoic Acid] | 23.5 |
| < 1 | Cc1ccc(C(CC(=O)O)c2ccn3c(C(F)(F)F)nnc3c2C)nc1CN1CC2CCCCN2c2ncc(C#N)cc2S1(=O)=O (stereo not shown) [Example 33, 3-(6-((3-Cyano-5,5-dioxido-7,7a,8,9,10,11-hexahydro-6H-dipyrido[2,1-d:2′,3′-f][1,2,5]thiadiazepin-6-yl)methyl)-5-methylpyridin-2-yl)-3-(8-methyl-3-(trifluoromethyl)-[1,2,4]triazolo[4,3-a]pyridin-7-yl)propanoic Acid] | 30.6 |
| < 1 | Cc1ccc(C(c2ccn3c(C(F)(F)F)nnc3c2C)C(C)(C)C(=O)O)cc1CN1CC2(CCOCC2)Oc2nc(OCCCO)ccc2S1(=O)=O (stereo not shown) [Example 49, 3-(3-((7′-(3-Hydroxypropoxy)-1′,1′-dioxido-2,3,5,6-tetrahydrospiro[pyran-4,4′-pyrido[2,3-b][1,4,5]oxathiazepin]-2′(3′H)-yl)methyl)-4-methylphenyl-2,2′-dimethyl-3-(8-methyl-3-trifluoromethyl)-[1,2,4]triazolo[4,3-a]pyridine-7-yl)propanoic Acid] | 71.9 |
| 2.5 | Cc1ccc(C(CC(=O)O)c2ccc3c(nnn3CC3CC3)c2C(F)F)cc1CN1CC2CCCN2c2ncccc2S1(=O)=O (stereo not shown) [Example 65] | 360 |
| 0.34 | Cc1ccc(C(CC(=O)O)c2ccc3c(nnn3CC3CC3)c2C)cc1CN1CC2(COC2)Oc2ncccc2S1(=O)=O (stereo not shown) [Example 67] | 23 |
| 2.6 | Cc1ccc(C(CC(=O)O)c2ccc3c(nnn3C)c2C(F)F)cc1CN1CC2CCCN2c2ncccc2S1(=O)=O (stereo not shown) [Example 71] | 1160 |
| < 1 | Cc1ccc(C(CC(=O)O)c2ccc3c(nnn3CC3CC3)c2C)cc1CN1CC2(COC2)Oc2ccccc2S1(=O)=O (stereo not shown) [Example 74, 3-(1-(Cyclopropylmethyl)-4-methyl-1H-benzo[d][1,2,3]triazol-5-yl)-3-(3-((1′,1′-dioxidospiro[benzo[b][1,4,5]oxathiazepin-4,3′-oxetan]-2,(3H)-yl)methyl)-4-methylphenyl)propanoic Acid] | 24 |
| < 1 | Cc1ccc(C(CC(=O)O)c2ccc3c(nnn3CC3CC3)c2C)cc1CN1CC2(CC2)N(C)c2ncccc2S1(=O)=O (stereo not shown) [Example 75, 3-(1-(Cyclopropylmethyl)-4-methyl-1H-benzo[d][1,2,3]triazol-5-yl)-3-(4-methyl-3-((5′-methyl-1′,1′-dioxido-5′H-spiro[cyclopropane-1,4′-pyrido[2,3-f][1,2,5]thiadiazepin]-2′(3′H)-yl)methyl)phenyl)propanoic Acid] | 14 |
| < 1 | Cc1c(C(CC(=O)O)c2ccc(Cl)c(CN3CC4CCCCN4c4ncccc4S3(=O)=O)c2)ccn2c(C(F)(F)F)nnc12 (stereo not shown) [Example 83, 3-(4-Chloro-3-(((*S)-5,5-dioxido-7,7a,8,9,10,11-hexahydro-6H-dipyrido[2,1-d:2′,3′-f][1,2,5]thiadiazepin-6-yl)methyl)phenyl)-3-(8-methyl-3-(trifluoromethyl)-[1,2,4]triazolo[4,3-a]pyridine-7-yl)propanoic Acid] | 232 |
| 2.4 | Cc1c(C(CC(=O)O)c2ccc(Cl)c(CN3CC4(COC4)Oc4ncccc4S3(=O)=O)c2)ccn2c(C(F)(F)F)nnc12 (stereo not shown) [Example 86, 3-(4-Chloro-3-((1′,1′-dioxoidospiro[oxetane-3,4′-pyrido[2,3-b][1,4,5]oxathiazepin]-2′(3′H)-yl)methyl)phenyl)-3-(8-methyl-3-(trifluoromethyl)-[1,2,4]triazolo[4,3-a]pyridine-7-yl)propanoic Acid] | 6240 |
| 0.0054 | Cc1cnc2c(c1)S(=O)(=O)N(Cc1cc(C(CC(=O)O)c3ccn4c(C(F)(F)F)nnc4c3C)ccc1Cl)CC1CCCCN21 (stereo not shown) [Example 89, 3-(4-Chloro-3-(((*S)-3-methyl-5,5-dioxido-7,7a,8,9,10,11-hexahydro-6H-dipyrido[2,1-d:2′,3′-f][1,2,5]thiadiazepin-6-yl)methyl)phenyl)-3-(8-methyl-3-(trifluoromethyl)-[1,2,4]triazolo[4,3-a]pyridine-7-yl)propanoic Acid] | 6.9 |
| < 1 | Cc1c(C(CC(=O)O)c2ccc(Cl)c(CN3CC4CCCCN4c4ncc(F)cc4S3(=O)=O)c2)ccn2c(C(F)(F)F)nnc12 (stereo not shown) [Example 92, 3-(4-Chloro-3-(((*S)-3-fluoro-5,5-dioxido-7,7a,8,9,10,11-hexahydro-6H-dipyrido[2,1-d:2′,3′-f][1,2,5]thiadiazepin-6-yl)methyl)phenyl)-3-(8-methyl-3-(trifluoromethyl)-[1,2,4]triazolo[4,3-a]pyridine-7-yl)propanoic Acid] | 28.6 |
| < 1 | Cc1ccc(C(c2ccn3c(C(F)(F)F)nnc3c2C)C(C)(C)C(=O)O)cc1CN1CC2(CCOCC2)Oc2nc(N[C@H](C)CCO)ccc2S1(=O)=O (stereo partly shown) [Example 117] | 425 |
| < 1 | Cc1ccc(C(c2ccn3c(C(F)(F)F)nnc3c2C)C(C)(C)C(=O)O)cc1CN1CC2(CCOCC2)Oc2nc(N[C@@H](C)CCO)ccc2S1(=O)=O (stereo partly shown) [Example 118] | 324 |
